Test results from the supplement of paper PMC10307832.

Key:
Assay in all cases: relative viability (nuclei count vs DMSO), 5 days (fraction); higher = more cells survive
kb NB 142-70 + OSI-027 = compound: C1CSC2=C(C(=O)N1)SC3=C2C=C(C=C3)O [kb NB 142-70] + COc1cccc2cc(-c3nc([C@H]4CC[C@H](C(=O)O)CC4)n4ncnc(N)c34)[nH]c12 [OSI-027] (partner 0.5 µM)
Procedure, shortened: (§1)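 Five library-drug doses in √10 steps were combined with a fixed anchor-drug dose, or a single drug was given alone, by pin tool to lung cancer cell lines in 1536-well plates the day after seeding. Nuclei were stained and counted after 5 days. Relative viability is the nuclei count in treated wells over that in vehicle wells, taken as the median of duplicate plates.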

[1] = compound: C1CSC2=C(C(=O)N1)SC3=C2C=C(C=C3)O [kb NB 142-70] + C[C@@H](Oc1cc(-c2cnn(C3CCNCC3)c2)cnc1N)c1c(Cl)ccc(F)c1Cl [Crizotinib] (partner 1 µM)
Procedure, shortened: as §1

kb NB 142-70 + Dasatinib = compound: C1CSC2=C(C(=O)N1)SC3=C2C=C(C=C3)O [kb NB 142-70] + Cc1nc(Nc2ncc(C(=O)Nc3c(C)cccc3Cl)s2)cc(N2CCN(CCO)CC2)n1 [Dasatinib] (partner 0.075 µM)
Procedure, shortened: as §1

[2] = compound: NCC(=O)Nc1ccc(-n2nc(C(F)(F)F)cc2-c2ccc3c(ccc4ccccc43)c2)cc1 + CC(=O)Nc1cccc(-n2c(=O)n(C3CC3)c(=O)c3c(Nc4ccc(I)cc4F)n(C)c(=O)c(C)c32)c1 [Trametinib] (partner 0.02 µM)
Procedure, shortened: as §1

[3] = compound: NCC(=O)Nc1ccc(-n2nc(C(F)(F)F)cc2-c2ccc3c(ccc4ccccc43)c2)cc1 + COc1cc2c(Oc3ccc(NC(=O)C4(C(=O)Nc5ccc(F)cc5)CC4)cc3F)ccnc2cc1OCCCN1CCOCC1 [Foretinib] (partner 0.25 µM)
Procedure, shortened: as §1

Cell Line	relative viability (kb NB 142-70 + OSI-027; first compound 0.1 µM)	relative viability (kb NB 142-70 + OSI-027; first compound 1 µM)	relative viability (kb NB 142-70 + OSI-027; first compound 3.162 µM)	relative viability ([1]; first compound 0.1 µM)	relative viability ([1]; first compound 1 µM)	relative viability ([1]; first compound 3.162 µM)	relative viability (kb NB 142-70 + Dasatinib; first compound 0.1 µM)	relative viability (kb NB 142-70 + Dasatinib; first compound 1 µM)	relative viability (kb NB 142-70 + Dasatinib; first compound 3.162 µM)	relative viability ([2]; first compound 0.02 µM)	relative viability ([2]; first compound 0.06325 µM)	relative viability ([2]; first compound 0.2 µM)	relative viability ([2]; first compound 0.6325 µM)	relative viability ([2]; first compound 2 µM)	relative viability ([3]; first compound 0.02 µM)	relative viability ([3]; first compound 0.06325 µM)	relative viability ([3]; first compound 0.2 µM)	relative viability ([3]; first compound 0.6325 µM)	relative viability ([3]; first compound 2 µM)
NCI-H2085	0.878	0.876	0.388	0.754	0.814	0.663	0.252	0.198	0.274	0.402	0.623	0.507	0.547	0.626	1.02	1.05	1.07	0.812	1.1
NCI-H1734	0.584	0.509	0.396	0.68	0.652	0.383	0.449	0.421	0.278	0.686	0.712	0.667	0.657	0.7	0.795	0.875	0.919	0.766	0.9
NCI-H2126	0.791	0.629	0.674	1.04	1.06	0.983	0.622	0.558	0.537	0.586	0.599	0.626	0.553	0.54	1.23	1.1	1.3	1.08	1.11
EMC-BAC-2	0.361	0.422	0.338	0.782	0.893	0.625	0.363	0.305	0.235	0.824	0.909	0.877	0.96	0.887	0.957	0.966	1.02	1.09	1.05
NCI-H1993	0.51	0.578	0.479	0.842	0.892	0.854	0.626	0.478	0.531	0.494	0.41	0.586	0.64	0.515	0.861	0.819	0.814	0.796	0.835
NCI-H520	0.262	0.226	0.25	0.869	0.825	0.507	0.168	0.197	0.173	0.637	0.641	0.747	0.678	0.679	0.852	0.831	0.677	0.725	0.917
NCI-H647	0.575	0.568	0.601	1.08	1.27	1.12	0.185	0.189	0.119	0.535	0.512	0.591	0.434	0.49	1.23	1.32	1.26	1.12	1.12
SK-LU-1	0.355	0.305	0.219	0.861	0.691	0.45	0.176	0.163	0.119	0.43	0.519	0.537	0.521	0.576	0.845	0.843	0.97	0.785	0.85
